Experimental data published in patent US20230303556A1, “PIPERAZINE SUBSTITUTED INDAZOLE COMPOUNDS AS INHIBITORS OF PARG” (IDEAYA BIOSCIENCES, INC., priority 2022, published 2023).
In brackets after ≈: the same amount, converted by molar mass. Read-outs that look alike come from different tables or passages of the source.

How the values were obtained:
[1] = Kinetic solubility in PBS pH 2.0 and pH 7.4; format: physicochemical; settings: aqueous buffer, kinetic from dmso stock, * n <3 runs
Method: • Control compound diclofenac sodium (LOT #BCBW9128) was purchased from Sigma Chemical Co. • 1.5 mL glass flat bottom vials (BioTech Solutions) • Molded PTFE/SIL plugs (BioTech Solutions) • PTFE encapsulated stir stick (V&P Scientific) • MultiScreenHTS HV (0.45 μm) 96 well plate (Millipore, MSHVN4510 or MSHVN4550) • Eppendorf Thermomixer Comfort • Vacuum Manifold ORVMN96. • PBS pH 2.0 and pH 7.4 was prepared in our laboratory
• diclofenac sodium (LOT #BCBW9128), Sigma Chemical Co.
• 1. Preparation of stock solutions. The stock solutions of test compounds and control compound diclofenac sodium were prepared in DMSO at the concentration of 30 mM and 10 mM, respectively. • 2. Procedure for solubility determination. 10 μL of stock solutions (30 mM) of test compounds was placed in order into their proper 96-well rack, 20 μL of DMSO and 970 μL of PBS pH 2.0 or pH 7.4 was added into each vial of the cap-less Solubility Sample plate; 30 μL of stock solution (10 mM) of control compound was placed in order into its proper 96-well rack, 970 μL of PBS pH 2.0 or pH 7.4 was added into each vial of the cap-less Solubility Sample plate. The assay was performed in duplicate. One stir stick was added to each vial and seal using a molded PTFE/Silicone plug. Then the Solubility Sample plate was transferred to the Eppendorf Thermomixer Comfort plate shaker and shaken at 25° C. at 1100 RPM for 24 hours. After completion of the 24 hours, plugs were removed and the stir sticks were removed using a big magnet, the samples from the Solubility Sample plate were transferred into the filter plate. Using the Vacuum Manifold, all the samples were filtered. Aliquot of 10 μL was taken from the filtrate followed by addition of 990 μL of a mixture of H2O and acetonitrile (1:1 in v/v). 200 μL of diluent was transferred to a new 96-well plate for LC-MS/MS analysis. The dilution factor was changed according to the solubility values and the LC-MS signal response. • 3. Preparation of 3 μM standards (STD). From the 10 mM or 30 mM DMSO STD plate, 15 μL or 5 μL was transferred into the remaining empty plate, and then 485 μL or 495 μL of DMSO was added to that plate to have a STD concentration of 300 μM. From the 300 μM DMSO STD plate, 5 μL was transferred into the remaining empty plate, and then 495 μL of a mixture of H2O and acetonitrile (1:1 in v/v) was added to that plate to have a final STD concentration of 3 μM. 200 μL of diluent was transferred to a new 96-well plate for LC-MS/MS analysis. The concentrations of the standard samples were changed according to the LC-MS signal response. • 4. Procedure for sample analysis. The plate was placed into the well plate autosampler. The samples were evaluated by LC-MS/MS analysis.

[2] = system: SNU601-NucLight Red cells; test: Cellular viability assay, SNU601-NucLight Red; format: cell-based; settings: SNU-601, 168 h, 7 days incubation, geometric mean
Method: (§1) The ability of the compounds disclosed herein to inhibit PARG was determined in the following two cell lines: RMUGS-NucLight Red and SNU601-NucLight Red. RMUGS-NucLight Red and SNU601-NucLight Red cells were generated by stably transducing parental cells (RMUGS-JCRB Cell Bank, Cat no: IF050320; SNU601-Korean Cell Line Bank, Cat no:00601) with Incucyte® NucLight Red lentivirus (Sartorius, Cat no: 4476). Described below are the protocols followed for both the cell lines.
(§2) The cells were plated at 200 cells/well in a 384-well black plate with clear flat bottom. After 24 hours, the plates were imaged using the Incucyte® S3 Live-Cell Analysis system and the number of live cells in each well (Day 0) was counted. Test compounds were then added by Tecan digital dispenser to generate a 9 point dose curve with a 3 fold dilution and 10 uM top concentration. All treatments were done in triplicates. After 7 days of incubation, the plates were imaged using the Incucyte® S3 system and the number of live cells per well (Day 7) was counted. For every well on the plate, the live cell counts on day 7 was normalized to the cell counts from day 0 (Day 7/Day 0). Average values of DMSO treated wells in a plate were calculated. All the data points were normalized to that of the average DMSO value. The % of control for each sample was compared to DMSO treated control samples. EC50 values were calculated in Collaborative Drug Discovery vault (CDD). Curves were fitted by CDD as % of control vs. log [compound concentration] using a 4-parameter inhibition model (Levenberg-Marquardt algorithm):
(§3) Fit=(A+((B−A)/(1+((C/x)^D))))
When clear bi-phasic behavior was observed on the resulting data the EC50 was calculated in GraphPad Prism Software for the major fraction of the response using the following formula:
Section1=Span*Frac/(1+10^((Log EC50_1−X)*nH1))
Section2=Span*(1−Frac)/(1+10^((Log EC50_2−X)*nH2))

RMUGS-NucLight Red cells = test: Cellular viability assay, RMUGS-NucLight Red; format: cell-based; settings: 168 h, 7 days incubation, geometric mean
Method: as §1
as §2, with “1000” for “200”, “96-well” for “384-well”, “duplicates.” for “triplicates.”, “[…]” for “EC50”
as §3

hPARG = hPARG (Homo sapiens (Human), UniProt Q86W56); test: Inhibition of PARG enzymatic assay (TR-FRET); format: biochemical; settings: geometric mean; 1 hr compound/enzyme pre-incubation
hPARG, sequence (Q86W56 whole entry): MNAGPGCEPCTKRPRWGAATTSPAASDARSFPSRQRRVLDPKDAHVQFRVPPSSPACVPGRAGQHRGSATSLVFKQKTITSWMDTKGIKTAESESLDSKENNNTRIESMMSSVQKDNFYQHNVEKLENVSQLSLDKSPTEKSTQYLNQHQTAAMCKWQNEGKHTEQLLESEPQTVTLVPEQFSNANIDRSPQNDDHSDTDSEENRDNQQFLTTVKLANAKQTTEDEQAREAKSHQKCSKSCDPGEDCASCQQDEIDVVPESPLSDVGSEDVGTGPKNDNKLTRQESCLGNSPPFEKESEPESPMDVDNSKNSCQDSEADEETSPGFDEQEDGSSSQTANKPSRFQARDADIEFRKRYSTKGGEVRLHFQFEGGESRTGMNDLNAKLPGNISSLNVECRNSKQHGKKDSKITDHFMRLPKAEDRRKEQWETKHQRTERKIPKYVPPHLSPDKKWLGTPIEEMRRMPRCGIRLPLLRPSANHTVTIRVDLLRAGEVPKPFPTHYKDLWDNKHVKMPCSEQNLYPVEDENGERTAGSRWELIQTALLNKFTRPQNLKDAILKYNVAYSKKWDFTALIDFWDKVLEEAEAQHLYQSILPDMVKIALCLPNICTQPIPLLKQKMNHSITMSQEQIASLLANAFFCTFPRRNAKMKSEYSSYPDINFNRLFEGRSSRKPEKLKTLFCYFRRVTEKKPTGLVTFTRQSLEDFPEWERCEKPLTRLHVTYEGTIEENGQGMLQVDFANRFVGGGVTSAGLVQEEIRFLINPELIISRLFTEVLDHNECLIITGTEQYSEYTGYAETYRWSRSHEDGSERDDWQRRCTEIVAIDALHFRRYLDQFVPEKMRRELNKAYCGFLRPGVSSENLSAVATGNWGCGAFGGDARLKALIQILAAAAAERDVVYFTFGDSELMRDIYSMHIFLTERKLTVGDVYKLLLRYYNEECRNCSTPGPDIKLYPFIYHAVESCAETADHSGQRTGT
Method: PARG enzyme was incubated with compound or vehicle (DMSO) and the biotinylated-PARylated PARP-1 substrate in a microtiter plate. After adding detection antibody and streptavidin-europium, and then incubating, the plate was read for fluorescence intensity. The low control (DMSO) with low fluorescence intensity represents no inhibition of enzymatic activity, while the high control (no enzyme) with high fluorescence intensity represents full inhibition of enzymatic activity.
• 0% inhibition: DMSO • 100% inhibition: No enzyme Enzyme reaction and Detection: • 1. Transfer 200 nL of 100× compound or DMSO to the appropriate wells of a 384 well white polystyrene microtitre plate (Corning Catalog #3574). • 2. Transfer 10 uL of 2× final concentration of enzyme in assay buffer or assay buffer alone to the appropriate wells. • 3. Centrifuge the plate at 1000 rpm for 30 seconds. • 4. Incubate the plate at room temperature for 1 hour. • 5. Transfer 10 uL of 2× substrate in assay buffer to all test wells. • 6. Incubate the plate at room temperature for 10 minutes • 7. Transfer 10 uL of 3× mixture of 42 nM detection antibody and 2.25 nM streptavidin-europium in 50 mM Tris-HCL pH 7.4 to all test wells. • 8. Incubate the plate at room temperature for 1 hour. • 9. Read the plate on a plate reader (Envision) • Excitation: 317 nm • Emission: 620 nm • Emission: 665 nm
EC50 values were calculated in Collaborative Drug Discovery vault (CDD). Curves were fitted by CDD as response (%) vs compound concentration (uM) using a 4-parameter inhibition model using Formula 1.
as §3

[3] = PBS pH 2.0, 25° C., read-out: Kinetic Solubility pH 2.0
[4] = PBS pH 7.4, 25° C., read-out: Kinetic Solubility pH 7.4

SMILES	solubility kinetic at 24 h [1, 3]	solubility kinetic at 24 h [1, 4]	EC50 [2]	EC50 (hPARG)	EC50 (RMUGS-NucLight Red cells)
C[C@@H]1CN(c2cc(S(=O)(=O)NC3(C)CC3)cc3c2cnn3-c2nnc(C(F)F)s2)C[C@@H](C)N1	261 µM (≈ 130 µg/mL)	41 µM (≈ 20.4 µg/mL)	89 nM	51 nM	32 nM
CC(C)C(=O)N1CCN(c2cc(S(=O)(=O)NC3(C#N)CC3)cc3c2cnn3-c2nnc(C(F)F)s2)C[C@@H]1C	3.4 µM (≈ 1.92 µg/mL)	8 µM (≈ 4.52 µg/mL)	184 nM	76 nM	137 nM
Cc1nnc(-n2ccc3ccc(S(=O)(=O)NC4(C)CC4)cc32)s1	29 µM (≈ 10.1 µg/mL)	24 µM (≈ 8.36 µg/mL)	> 10000 nM	> 10000 nM	> 10000 nM
CC(C)C(=O)N1[C@H](C)CN(c2cc(S(=O)(=O)NC3(C#N)CC3)cc3c2cnn3-c2nnc(C(F)F)s2)C[C@@H]1C	< 0.03 µM	< 0.03 µM	178 nM	79 nM	101 nM
CN1CCN(c2cc(S(=O)(=O)NC3(C#N)CC3)cc3c2cnn3-c2nnc(C(F)F)s2)CC1	289 µM (≈ 143 µg/mL)	2.7 µM (≈ 1.34 µg/mL)	1580 nM	201 nM	439 nM
C[C@H]1CN(c2cc(S(=O)(=O)NC3(C#N)CC3)cc3c2cnn3-c2nnc(C(F)F)s2)CCN1C(=O)N(C)C	7.8 µM (≈ 4.41 µg/mL)	14 µM (≈ 7.92 µg/mL)	110 nM	14 nM	77 nM
C[C@H]1CN(c2cc(S(=O)(=O)NC3(C)CC3)cc3c2cnn3-c2nnc(C(F)F)s2)C[C@H](C)N1 [drawing 29]	282 µM (≈ 140 µg/mL)	42 µM (≈ 20.9 µg/mL)	11 nM	1.9 nM	4.2 nM
CC(C)C(=O)N1CCN(c2cc(S(=O)(=O)NC3(C#N)CC3)cc3c2cnn3-c2nnc(C(F)F)s2)C[C@H]1C	2.1 µM (≈ 1.19 µg/mL)	5.6 µM (≈ 3.16 µg/mL)	146 nM	39 nM	75 nM
C[C@@H]1CN(c2cc(S(=O)(=O)NC3(C)CC3)cc3c2cnn3-c2nnc(C(F)F)s2)C[C@H](C)N1	271 µM (≈ 135 µg/mL)	31 µM (≈ 15.4 µg/mL)	27 nM	15 nM	11 nM

Continued, in another order:

solubility kinetic at 24 h [1, 3]	solubility kinetic at 24 h [1, 4]	EC50 [2]	EC50 (hPARG)	SMILES	EC50 (RMUGS-NucLight Red cells)
1 µM (≈ 0.552 µg/mL)	1.4 µM (≈ 0.772 µg/mL)	81 nM	6.6 nM	CN(C)C(=O)N1CCN(c2cc(S(=O)(=O)NC3(C#N)CC3)cc3c2cnn3-c2nnc(C(F)F)s2)CC1	49 nM
0.2 µM (≈ 0.108 µg/mL)	0.3 µM (≈ 0.162 µg/mL)	36 nM	7.3 nM	CN(C)C(=O)N1CCN(c2cc(S(=O)(=O)NC3(C)CC3)cc3c2cnn3-c2nnc(C(F)F)s2)CC1	8.3 nM
1.1 µM (≈ 0.606 µg/mL)	2.1 µM (≈ 1.16 µg/mL)	104 nM	19 nM	CC(C)C(=O)N1CCN(c2cc(S(=O)(=O)NC3(C#N)CC3)cc3c2cnn3-c2nnc(C(F)F)s2)CC1	64 nM
7.2 µM (≈ 4.07 µg/mL)	14 µM (≈ 7.92 µg/mL)	84 nM	9.9 nM	C[C@@H]1CN(c2cc(S(=O)(=O)NC3(C#N)CC3)cc3c2cnn3-c2nnc(C(F)F)s2)CCN1C(=O)N(C)C	60 nM
